Experimental data: article PMC4331264 (Biochimica et biophysica acta, 2015)
Like-named read-outs stand apart in the source and are kept apart here.

Key:
Ste2p-FT-HT [1] = target: T1, Ste2p-FT-HT (Saccharomyces cerevisiae, UniProt D6VTK4, C252S/C59S); type: binding; conditions: [Bio-DOPA]11-mer 85 μM
Ste2p-FT-HT [2] = target: T1, Ste2p-FT-HT; type: binding; conditions: read-out: cross-linking of [Bio-DOPA]13-mer, % of control, novobiocin 5 mM, [Bio-DOPA]13-mer 10 μM
Ste2p-FT-HT [3] = target: T1, Ste2p-FT-HT; type: binding; conditions: [3H]α-factor 5 nM; novobiocin 10^−4 M to 10^−11 M; 30 min on ice
[4] = system: Ste2p-FT-HT signalling in LM102 cells (FUS1-lacZ); assay: FUS1-lacZ reporter gene assay; type: cell-based, Saccharomyces cerevisiae; conditions: for FUS1-lacZ reporter gene activity of peptide alone: peptide alone (30 μM), absence of α-factor; for increase in FUS1-lacZ reporter gene activity over α-factor alone: α-factor 50 nM plus peptide 30 μM, 90 min, 30°C, mean of three determinations
[5] = system: Saccharomyces cerevisiae LM102 cells expressing Ste2p-FT-HT; assay: Growth arrest; type: cell-based; conditions: for halo area in presence of novobiocin: novobiocin 2.2 mg/4.5 ml Noble agar-cell mixture; for growth arrest activity of peptide alone: peptide alone 15 μg/disk, no α-factor; for halo (zone of growth inhibition) area on co-spotting with α-factor: α-factor 0.1 μg/disk plus peptide 15 μg/disk, three replicates
Ste2p [6] = conditions: cited from earlier work
Ste2p [7] = conditions: cited from earlier work; remark: listed apart in the source

T1 sequence (D6VTK4 whole entry C59S/C252S): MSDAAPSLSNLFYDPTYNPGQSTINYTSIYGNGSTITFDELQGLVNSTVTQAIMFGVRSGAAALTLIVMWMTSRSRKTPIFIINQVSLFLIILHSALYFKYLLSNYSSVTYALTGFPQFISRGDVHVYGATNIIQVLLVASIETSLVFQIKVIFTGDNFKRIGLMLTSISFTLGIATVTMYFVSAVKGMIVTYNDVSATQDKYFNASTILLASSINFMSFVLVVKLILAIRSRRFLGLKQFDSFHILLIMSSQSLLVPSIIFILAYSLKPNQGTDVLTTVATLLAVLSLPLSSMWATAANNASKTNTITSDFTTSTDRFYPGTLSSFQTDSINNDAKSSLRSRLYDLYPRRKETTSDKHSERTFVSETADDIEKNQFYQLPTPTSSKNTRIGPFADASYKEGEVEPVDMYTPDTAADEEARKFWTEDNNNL

CO[C@@H]1[C@@H](OC(N)=O)[C@@H](O)[C@H](Oc2ccc3c(O)c(NC(=O)c4ccc(O)c(CC=C(C)C)c4)c(=O)oc3c2C)OC1(C)C [novobiocin]
maximal inhibition of [Bio-DOPA]11-mer cross-linking (Ste2p-FT-HT [1]; between 10 and 50 mM novobiocin, Fig. 6): ~ 90%
remaining activity at 5000 µM (Ste2p-FT-HT [1]; read-out: labeling (cross-linking of [Bio-DOPA]11-mer), % of control level, novobiocin 5 mM, average over 3 replicate blots): 26%
remaining activity at 5000 µM (Ste2p-FT-HT [2]; average over 3 replicate blots): 118%
remaining activity at 5000 µM (Ste2p-FT-HT [2]; blot in Fig. 5): 136%
competition with [3H]α-factor for binding to Ste2p-FT-HT (Ste2p-FT-HT [3]): did not prevent α-factor binding to the receptor
FUS1-lacZ response to novobiocin in presence of α-factor ([4]; 25 nM α-factor, repeated three times): dose-dependent increase in activity up to 12.5 μM
FUS1-lacZ reporter gene activity, novobiocin by itself ([4]; no α-factor, concentrations up to 37.5 μM): failed to increase reporter gene activity
FUS1-lacZ reporter gene activity, novobiocin by itself, higher amounts ([4]; no α-factor, up to 400 μM, data not shown): failed to stimulate reporter gene activity
intrinsic agonistic activity in growth arrest assay ([5]; novobiocin by itself, up to 2.2 mg/disk): no measurable, intrinsic agonistic activity
increase of halo area in presence of novobiocin, without paper disk ([5]; α-factor 10 ng spotted directly onto lawn containing novobiocin 2.2 mg/lawn): 45%
halo area in presence of novobiocin ([5]; α-factor 0.1 μg/disk): 155 ± 24 mm^2
halo area in presence of novobiocin ([5]; α-factor 0.2 μg/disk): 273 ± 14 mm^2
agonistic activity in growth arrest assays (Ste2p [6]; S. cerevisiae strain supersensitive to α-factor): weak agonistic activity

DOPA-HWLQLK(BiotinACA)PGQP [[Bio-DOPA]11-mer, [DOPA^1, K^7 (BiotinACA),desM^12desY^13] α-factor]
FUS1-lacZ reporter gene activity of peptide alone [4]: no intrinsic biological activity
increase in FUS1-lacZ reporter gene activity over α-factor alone [4]: approximately 2 fold
growth arrest activity of peptide alone [5]: no intrinsic biological activity
halo (zone of growth inhibition) area on co-spotting with α-factor [5]: 309 ± 27 mm^2

WHWLQLKPGQP [11-mer]
competition for binding with α-factor (Ste2p [7]): did not compete for binding with α-factor
influence on affinity of the receptor for α-factor (Ste2p [7]; wild-type yeast strain): did not influence the affinity of the receptor for the ligand
FUS1-lacZ reporter gene activity of peptide alone [4]: did not stimulate reporter gene activity over control levels
increase in FUS1-lacZ reporter gene activity over α-factor alone [4]: 2.5 fold
growth arrest activity of peptide alone [5]: no biological activity
halo (zone of growth inhibition) area on co-spotting with α-factor [5]: 382 ± 36 mm^2
innate biological activity (Ste2p [6]; wild-type yeast strain): no innate biological activity
agonist activity in supersensitive mutant (Ste2p [6]; yeast mutant supersensitive to the ligand): very weak agonist

[DOPA^1, K^7 (BiotinACA)] α-factor [[Bio-DOPA]13-mer]
biological activity (Ste2p [6]; binds the orthosteric site of the receptor): retains biological activity
